Results on 17 compounds are retold here after ChEMBL document CHEMBL2203047, “Discovery and SAR of a novel series of non-MPEP site mGlu₅ PAMs based on an aryl glycine sulfonamide scaffold” (Bioorg Med Chem Lett, 2012).

Data set [1] deals with Plasma. In words: (§1) Fraction unbound in rat plasma at 5 uM after 4 hrs by equilibrium dialysis method. Type of data set: ADME, cell-free. Particulars: 4 h, 5 µM.
Data set [2] relates to Plasma. Description: (§2) Fraction unbound in human plasma at 5 uM after 4 hrs by equilibrium dialysis method. Type of data set: ADME, cell-free. The note with it: 4 h, 5 µM.
Another data set has as its system Liver microsomes. Description: Metabolic stability in rat liver microsomes assessed as compound remaining at 1 uM after 15 mins in presence of NADPH. The note with it: 0.25 h. Type of data set: ADME, Microsome. (Microsomes from liver hold many membrane-bound enzymes, among them those of drug oxidation.)
Data set [3] addresses T1, Metabotropic glutamate receptor 5 (Rattus norvegicus, UniProt P31424). In words: Ago-positive allosteric modulation of rat mGlu5 receptor expressed in HEK293 cells by fluorescence-based calcium flux assay. The data set is classed as functional, cell-based. On the technique in general: Calcium assays in cells follow changes in intracellular calcium, usually with a dye or a luminescent sensor.

In data set [4] the target is Metabotropic glutamate receptor 5 (Rattus norvegicus) (UniProt P31424). In words: Ago-positive allosteric modulation of rat mGlu5 receptor expressed in HEK293 cells by fluorescence-based calcium flux assay relative to glutamate. The data set is classed as functional, cell-based.
Data set [5] deals with T2, Metabotropic glutamate receptor 5 (Homo sapiens, UniProt P41594). Description: Positive allosteric modulation of human mGlu5 receptor expressed in HEK293 cells by fluorescence-based calcium flux assay relative to glutamate. Type of data set: functional, cell-based.
Data set [6] deals with T2, Metabotropic glutamate receptor 5. In words: Positive allosteric modulation of human mGlu5 receptor expressed in HEK293 cells by fluorescence-based calcium flux assay. The data set is classed as functional, cell-based.
Data set [7] has as its target Metabotropic glutamate receptor 5 (Rattus norvegicus) (UniProt P31424). In words: Displacement of [3H]-methoxyPEPy from rat mGlu5 receptor expressed in HEK293 cells up to 30 uM after 1 hr by scintillation counting analysis. Type of data set: cell-based.
In data set [8] the target is Metabotropic glutamate receptor 3 (Homo sapiens) (UniProt Q14832). In words: Positive allosteric modulation of mGluR3.
Chain of Metabotropic glutamate receptor 3 (Homo sapiens) (Q14832 23-879 limits assumed): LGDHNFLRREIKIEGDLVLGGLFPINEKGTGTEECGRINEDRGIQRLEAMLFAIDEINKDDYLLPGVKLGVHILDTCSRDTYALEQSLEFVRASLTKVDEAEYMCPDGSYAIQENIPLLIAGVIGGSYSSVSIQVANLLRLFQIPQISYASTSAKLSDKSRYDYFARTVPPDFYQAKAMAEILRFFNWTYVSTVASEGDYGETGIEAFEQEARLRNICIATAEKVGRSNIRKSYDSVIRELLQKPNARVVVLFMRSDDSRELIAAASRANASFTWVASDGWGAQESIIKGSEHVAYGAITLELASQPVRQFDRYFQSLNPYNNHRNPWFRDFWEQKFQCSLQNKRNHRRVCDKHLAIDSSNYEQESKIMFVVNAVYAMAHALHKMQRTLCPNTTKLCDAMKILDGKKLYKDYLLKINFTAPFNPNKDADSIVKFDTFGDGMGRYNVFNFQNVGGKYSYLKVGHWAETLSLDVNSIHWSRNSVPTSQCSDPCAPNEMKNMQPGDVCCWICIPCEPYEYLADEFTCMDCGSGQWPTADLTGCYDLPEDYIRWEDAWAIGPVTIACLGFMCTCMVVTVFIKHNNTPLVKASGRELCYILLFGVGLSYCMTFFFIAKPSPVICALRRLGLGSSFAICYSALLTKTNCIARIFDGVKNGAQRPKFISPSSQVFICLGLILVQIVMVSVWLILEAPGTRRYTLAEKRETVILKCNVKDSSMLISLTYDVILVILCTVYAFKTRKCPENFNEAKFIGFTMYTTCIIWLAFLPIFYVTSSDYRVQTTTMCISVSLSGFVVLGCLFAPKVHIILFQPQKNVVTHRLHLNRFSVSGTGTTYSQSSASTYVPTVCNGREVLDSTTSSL
In data set [9] the target is Metabotropic glutamate receptor 6 (Homo sapiens) (UniProt O15303). In words: Positive allosteric modulation of mGluR6.
Chain of Metabotropic glutamate receptor 6 (Homo sapiens) (O15303 whole entry): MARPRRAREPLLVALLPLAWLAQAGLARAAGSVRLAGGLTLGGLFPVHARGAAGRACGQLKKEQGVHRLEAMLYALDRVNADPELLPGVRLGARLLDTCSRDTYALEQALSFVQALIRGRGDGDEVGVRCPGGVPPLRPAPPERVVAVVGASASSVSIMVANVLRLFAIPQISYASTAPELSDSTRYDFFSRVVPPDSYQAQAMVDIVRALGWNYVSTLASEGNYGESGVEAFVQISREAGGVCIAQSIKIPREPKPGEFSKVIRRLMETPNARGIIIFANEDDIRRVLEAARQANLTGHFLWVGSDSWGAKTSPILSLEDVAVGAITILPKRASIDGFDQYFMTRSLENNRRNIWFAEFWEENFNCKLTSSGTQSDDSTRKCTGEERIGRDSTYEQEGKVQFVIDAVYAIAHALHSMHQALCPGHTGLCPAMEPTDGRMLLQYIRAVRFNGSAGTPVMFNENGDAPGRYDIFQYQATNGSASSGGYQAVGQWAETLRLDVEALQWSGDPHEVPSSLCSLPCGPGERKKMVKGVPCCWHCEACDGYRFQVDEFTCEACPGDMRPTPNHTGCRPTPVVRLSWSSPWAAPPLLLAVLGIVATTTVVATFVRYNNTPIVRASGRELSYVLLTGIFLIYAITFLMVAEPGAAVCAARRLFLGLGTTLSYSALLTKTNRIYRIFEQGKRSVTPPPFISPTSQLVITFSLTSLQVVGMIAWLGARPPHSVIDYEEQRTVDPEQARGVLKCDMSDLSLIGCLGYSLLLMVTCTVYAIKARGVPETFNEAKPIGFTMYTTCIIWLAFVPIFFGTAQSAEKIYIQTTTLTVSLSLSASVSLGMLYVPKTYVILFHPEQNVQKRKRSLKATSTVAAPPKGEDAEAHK
Data set [10] has as its target Metabotropic glutamate receptor 2 (Homo sapiens) (UniProt Q14416). In words: Positive allosteric modulation of mGluR2.
The target in data set [11] is Metabotropic glutamate receptor 4 (Homo sapiens) (UniProt Q14833). In words: Positive allosteric modulation of mGluR4.
Another data set has as its system HEK293. In words: Selectivity ratio of EC50 for human mGlu5 receptor expressed in HEK293 cells to EC50 for rat mGlu5 receptor expressed in HEK293 cells. The data set is classed as cell-based.
In data set [12] the target is Metabotropic glutamate receptor 7 (Homo sapiens) (UniProt Q14831). In words: Positive allosteric modulation of mGluR7.
In data set [13] the target is Metabotropic glutamate receptor 1 (Homo sapiens) (UniProt Q13255). In words: Positive allosteric modulation of mGluR1.
Chain of Metabotropic glutamate receptor 1 (Homo sapiens) (Q13255 19-1194 limits assumed): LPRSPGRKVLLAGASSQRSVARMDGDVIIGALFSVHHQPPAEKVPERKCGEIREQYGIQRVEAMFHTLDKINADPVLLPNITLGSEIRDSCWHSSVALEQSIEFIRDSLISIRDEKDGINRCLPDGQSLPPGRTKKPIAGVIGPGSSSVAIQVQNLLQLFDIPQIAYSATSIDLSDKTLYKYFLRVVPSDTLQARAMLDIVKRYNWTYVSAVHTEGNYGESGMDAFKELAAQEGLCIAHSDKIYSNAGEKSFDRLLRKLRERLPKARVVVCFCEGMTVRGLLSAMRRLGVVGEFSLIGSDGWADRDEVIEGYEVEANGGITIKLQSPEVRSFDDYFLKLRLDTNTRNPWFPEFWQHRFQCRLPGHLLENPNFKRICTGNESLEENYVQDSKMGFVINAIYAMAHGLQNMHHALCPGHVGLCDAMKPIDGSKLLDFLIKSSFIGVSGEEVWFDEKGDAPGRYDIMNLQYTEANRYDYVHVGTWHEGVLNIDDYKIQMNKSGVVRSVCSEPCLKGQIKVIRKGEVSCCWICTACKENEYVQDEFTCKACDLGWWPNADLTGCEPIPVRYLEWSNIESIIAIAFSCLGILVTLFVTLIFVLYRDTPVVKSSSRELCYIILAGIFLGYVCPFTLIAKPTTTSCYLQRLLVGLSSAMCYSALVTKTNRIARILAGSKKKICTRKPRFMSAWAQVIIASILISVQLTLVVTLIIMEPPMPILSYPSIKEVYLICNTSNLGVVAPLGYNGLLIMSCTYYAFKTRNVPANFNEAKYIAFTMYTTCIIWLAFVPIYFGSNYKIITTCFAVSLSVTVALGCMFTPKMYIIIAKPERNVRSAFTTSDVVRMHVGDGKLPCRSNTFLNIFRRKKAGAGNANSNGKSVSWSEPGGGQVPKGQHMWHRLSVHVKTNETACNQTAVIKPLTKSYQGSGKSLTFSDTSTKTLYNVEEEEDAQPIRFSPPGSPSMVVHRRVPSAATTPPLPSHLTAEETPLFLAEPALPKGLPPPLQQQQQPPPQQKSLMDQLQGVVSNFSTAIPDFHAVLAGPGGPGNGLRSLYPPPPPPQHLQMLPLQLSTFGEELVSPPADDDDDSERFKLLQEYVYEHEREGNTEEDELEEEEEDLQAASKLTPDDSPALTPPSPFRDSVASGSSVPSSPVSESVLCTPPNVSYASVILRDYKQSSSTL
The target of data set [14] is T1, Metabotropic glutamate receptor 5. In words: Displacement of [3H]-methoxyPEPy from rat mGlu5 receptor expressed in HEK293 cells after 1 hr by scintillation counting analysis. The data set is classed as cell-based. (In general: In a radioligand displacement assay an active substance lowers the binding of a labelled ligand.)
In data set [15] the target is Metabotropic glutamate receptor 8 (Homo sapiens) (UniProt O00222). In words: Positive allosteric modulation of mGluR8.
Data set [16] can be described thus: Ratio of AUC in Sprague-Dawley rat brain at 10 mg/kg, ip to AUC in Sprague-Dawley rat plasma at 10 mg/kg, ip. The data set is classed as ADME, organism-based. Particulars: brain and plasma, read-out: Ratio AUC.
The nature of data set [17]: as §1. The data set is classed as ADME, cell-free.
Data set [18] in a line: as §2. The data set is classed as ADME, cell-free.
A short description of data set [19]: Inhibition of sodium channel.
The target of data set [20] is Voltage-gated inwardly rectifying potassium channel KCNH2 (Homo sapiens, UniProt Q12809). In words: Inhibition of human ERG.
Data set [21] in a line: Inhibition of calcium channel.

Activity calls are given as the source filed them. The rule behind the calls is not given here. Bounds are passed on as bounds.

T1 sequence (P31424 whole entry): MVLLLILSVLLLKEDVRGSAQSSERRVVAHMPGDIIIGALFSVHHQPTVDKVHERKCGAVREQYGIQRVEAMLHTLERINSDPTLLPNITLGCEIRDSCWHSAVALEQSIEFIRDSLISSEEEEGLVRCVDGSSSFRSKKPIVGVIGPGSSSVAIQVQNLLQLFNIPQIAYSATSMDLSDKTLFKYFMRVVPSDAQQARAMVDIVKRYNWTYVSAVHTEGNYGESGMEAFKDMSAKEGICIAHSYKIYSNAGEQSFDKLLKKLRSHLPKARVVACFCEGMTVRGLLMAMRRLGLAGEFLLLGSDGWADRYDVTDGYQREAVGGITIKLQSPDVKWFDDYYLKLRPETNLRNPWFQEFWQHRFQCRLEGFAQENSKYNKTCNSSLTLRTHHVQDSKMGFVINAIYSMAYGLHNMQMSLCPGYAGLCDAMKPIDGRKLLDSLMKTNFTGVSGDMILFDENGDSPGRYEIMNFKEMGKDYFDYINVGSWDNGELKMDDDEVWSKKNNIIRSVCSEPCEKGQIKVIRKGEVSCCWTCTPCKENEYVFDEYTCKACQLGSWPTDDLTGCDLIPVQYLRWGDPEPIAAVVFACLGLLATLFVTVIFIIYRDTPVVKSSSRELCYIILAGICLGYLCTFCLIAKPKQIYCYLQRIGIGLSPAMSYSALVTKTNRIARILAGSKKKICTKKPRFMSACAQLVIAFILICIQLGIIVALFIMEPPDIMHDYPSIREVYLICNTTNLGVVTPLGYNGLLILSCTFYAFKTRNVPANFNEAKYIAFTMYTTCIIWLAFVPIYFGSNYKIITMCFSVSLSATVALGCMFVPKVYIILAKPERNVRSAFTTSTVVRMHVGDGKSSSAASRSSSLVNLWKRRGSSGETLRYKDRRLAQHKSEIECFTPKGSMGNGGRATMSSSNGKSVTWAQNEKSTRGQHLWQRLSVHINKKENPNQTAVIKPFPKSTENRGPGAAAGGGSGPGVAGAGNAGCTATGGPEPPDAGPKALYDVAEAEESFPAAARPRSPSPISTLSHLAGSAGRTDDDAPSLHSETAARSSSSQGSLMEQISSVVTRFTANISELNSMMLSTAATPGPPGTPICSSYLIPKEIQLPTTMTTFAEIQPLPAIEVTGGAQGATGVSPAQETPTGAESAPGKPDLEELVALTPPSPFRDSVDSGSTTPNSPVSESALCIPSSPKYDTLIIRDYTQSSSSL
Chain of Metabotropic glutamate receptor 2 (Homo sapiens) (Q14416 19-872 limits assumed): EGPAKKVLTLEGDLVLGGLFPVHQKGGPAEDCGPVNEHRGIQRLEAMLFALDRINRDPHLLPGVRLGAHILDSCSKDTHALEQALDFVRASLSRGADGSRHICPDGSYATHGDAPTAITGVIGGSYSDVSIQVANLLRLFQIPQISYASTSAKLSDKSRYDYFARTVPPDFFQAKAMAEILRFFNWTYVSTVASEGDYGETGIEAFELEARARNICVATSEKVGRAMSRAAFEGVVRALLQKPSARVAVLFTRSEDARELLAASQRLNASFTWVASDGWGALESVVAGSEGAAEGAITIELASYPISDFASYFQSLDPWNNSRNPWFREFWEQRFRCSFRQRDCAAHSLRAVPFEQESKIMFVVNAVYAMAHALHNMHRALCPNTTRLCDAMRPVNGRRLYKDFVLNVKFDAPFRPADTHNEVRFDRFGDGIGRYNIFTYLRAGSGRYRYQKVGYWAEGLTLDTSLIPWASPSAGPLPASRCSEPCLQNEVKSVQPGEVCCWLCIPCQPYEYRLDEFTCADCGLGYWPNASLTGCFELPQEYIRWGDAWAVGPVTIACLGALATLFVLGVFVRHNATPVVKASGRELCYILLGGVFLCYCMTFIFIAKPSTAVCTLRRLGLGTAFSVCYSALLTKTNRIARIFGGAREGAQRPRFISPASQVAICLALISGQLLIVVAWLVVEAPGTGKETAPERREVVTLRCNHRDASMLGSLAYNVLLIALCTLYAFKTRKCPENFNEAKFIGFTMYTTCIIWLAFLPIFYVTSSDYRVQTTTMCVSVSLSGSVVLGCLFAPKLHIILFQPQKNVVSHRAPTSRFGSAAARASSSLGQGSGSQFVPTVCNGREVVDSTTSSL

With `CS(=O)(=O)N(CC(=O)Nc1ccc(F)cn1)c1ccccc1Cl`, the Fu with Plasma [1] came to 0.17; in the data set on Plasma [2], 0.09. Moreover, the Stability in the data set with Liver microsomes came to 39%. Further, in data set [3], the EC50 (commonly the concentration giving half of the maximal effect) turned out to be 3.72 µM. In addition, in data set [4], the Emax (commonly the maximal effect, on the per cent scale that the assay sets) amounted to 66%.

Regarding `CCC(C(=O)Nc1cccc(Cl)c1)N(c1ccccc1Cl)S(C)(=O)=O` (racemic), the EC50 in data set [3] was found to be 3.3 µM.

In the case of `CC(C(=O)Nc1cccc(Cl)c1)N(c1ccccc1Cl)S(C)(=O)=O` (racemic), the EC50 in data set [3] worked out at 0.068 µM. In data set [4], the Emax worked out at 43%.

As to `O=S(=O)(c1ccc(F)cc1)N1CCC[C@H](c2nc(-c3ccc(F)cc3)no2)C1`, the Emax is 43% in [5] and 84% in [4]. The EC50 is > 10 µM in data set [6] (read-out: EC50) and 3.4 µM in data set [3]. Also, the result in data set [7] was inactive.

As to `CCS(=O)(=O)N1c2ccccc2CC[C@H]1C(=O)Nc1cccc(Cl)c1`, the concentration giving a half-maximal response (EC50) in data set [3] is 2.5 µM. In data set [4], the Emax turned out to be 74%.

`CS(=O)(=O)N(CC(=O)Nc1cccc(Cl)c1)c1ccccc1Cl`: the Activity in data set [8], in data set [9], in data set [10], in data set [11], in [12] and in data set [13] was > 10 µM each time. Moreover, in [15], the Activity is > 10 µM. The Emax in [5] was found to be 63%; in data set [4], 74%. Further, the EC50 in [6] (read-out: EC50) was 0.78 µM; in [3] it was 0.08 µM. In addition, in the data set on HEK293, the Ratio EC50 turned out to be 10. The Ki (as a rule, a measure of affinity in units of concentration, obtained from inhibition or displacement) in [14] is > 10 µM.

`CS(=O)(=O)N(CC(=O)NCC1CC1)c1cc(C(F)(F)F)ccc1Cl`: the Activity in data set [8], in data set [9], in data set [10], in data set [11], in [12] and in data set [13] was > 10 µM throughout. Moreover, the Activity in [15] is > 10 µM. Also, the Kp in [16] was 0.4. The fraction unbound (as a rule, free concentration divided by total concentration) at 4 h, 5 µM in data set [17] amounted to 0.13; in [18] it was 0.1. Moreover, the IC50 in [19], in data set [20] and in data set [21] was > 10 µM throughout. The Emax in data set [5] worked out at 70%; in data set [4], 61%. The figures for the EC50 in data set [6] (read-out: EC50) and in [3] were 4.5 µM and 0.398 µM, respectively. The Ki in [14] was > 30 µM.

Turning to `CS(=O)(=O)N1c2ccccc2CCC1C(=O)Nc1cccc(Cl)c1` (racemic), the EC50 in data set [3] is 1 µM. In addition, the Emax in [4] worked out at 60%.

With `Cn1cnc(S(=O)(=O)N2c3ccccc3CCC2C(=O)Nc2cccc(Cl)c2)c1` (racemic), the EC50 in data set [3] is > 10 µM. The Emax in data set [4] worked out at 75%.

Consider `CS(=O)(=O)N(CC(=O)Nc1cccnc1F)c1ccccc1Cl`, for which the Emax came out at 42% in data set [5] and 64% in data set [4]. Besides, the negative logarithm of the EC50 (pEC50) (commonly the negative decadic logarithm of the EC50, by convention in mol/L) in data set [6] (hek293) is on record as < 5. Moreover, the half-maximal effective concentration (EC50) is > 10 µM in [6] (read-out: EC50) and 1.74 µM in [3].

Take `CCCC(C(=O)Nc1cccc(Cl)c1)N(c1ccccc1Cl)S(C)(=O)=O` (racemic): the concentration giving a half-maximal response (EC50) in data set [3] was > 10 µM.

For the compound `CS(=O)(=O)N(CC(=O)Nc1ccccc1)c1ccccc1Cl`, the Activity in data set [8], in data set [9], in [10], in [11], in [12] and in [13] was > 10 µM in each case. The same compound showed a Fu in the data set on Plasma [1] of 0.13. Further, the maximum response (Emax) in [5] was determined as 77%; in data set [4], 61%. For the same compound, the values for the EC50 in [6] (read-out: EC50) and in data set [3] were 1.38 µM and 0.07 µM, respectively. Moreover, in the data set with Liver microsomes, the Stability entry is “<= 4%”. Moreover, the Ki in data set [14] is > 10 µM.

Consider `CS(=O)(=O)N1c2ccccc2CCC1C(=O)Nc1ccccn1` (racemic), for which, in data set [3], the concentration giving a half-maximal response (EC50) turned out to be 1.3 µM. Also, the maximal response (Emax) in data set [4] came to 68%.

`O=C(Nc1ccc(Cl)cc1CN1C(=O)c2ccccc2C1=O)c1ccccc1O`: in the data set with HEK293, the Ratio EC50 was 3.

With `CS(=O)(=O)N(CC(=O)Nc1ccc(F)nc1)c1ccccc1Cl`, the Emax in data set [5] is 35%; in [4], 72%. In data set [6] (hek293), the pEC50 was < 5. The EC50 was > 10 µM in data set [6] (read-out: EC50) and 4.47 µM in [3].

Turning to `O=C(Nc1cccc(Cl)c1)[C@@H]1CCc2ccccc2N1S(=O)(=O)c1ccccc1F`, the EC50 in data set [3] turned out to be 6.7 µM. Also, the Emax in data set [4] worked out at 78%.

Turning to `O=S(=O)(c1ccc(C#Cc2cccc(F)c2)cc1)N1CCOCC1`, the concentration for a half-maximal effect (EC50) entry is “Not Active” in data set [6] (hek293) and 0.457 µM in data set [3]. The result in data set [7] was inactive. The Emax in [4] was 55%.
